Assay results reported in ChEMBL document CHEMBL3507680, “University of Dundee, Gates Library screen for HepG2 cell viability”.

Assay: Human HepG2 cell viability assay in 384 well format
Format: toxicity, cell-based
Design: dose 125 nL, time 70.5 hour; cytotoxicity at 70.5 h: concentration not given beside the values
Settings: HepG2 cells, read-out: Inhibition
In the case of `CCn1c(N)nc2cc(C(=O)NCc3cccc(C)c3C)cnc21`, the cytotoxicity at 70.5 h is reported as 17.1%.
Molecule `Cc1cc(N2CCC(NC(=O)CCC3CCCO3)CC2)nc(C)n1` (stereo not given) has a cytotoxicity at 70.5 h of -5.62%.
Work on `CCCc1n[nH]c(C2CN(C(=O)Cc3ccc(C)nc3)CCO2)n1` (stereo not given) yielded a cytotoxicity at 70.5 h of -1.25%.
With `O=C(NCc1ccncc1)c1ccc(Cl)cc1F` the cytotoxicity at 70.5 h was 4.94%.
`Cc1nc2c(c(N3CC=CC3)n1)CCN(Cc1ccoc1)CC2` gave a cytotoxicity at 70.5 h of -2.75%.
With `Cc1ccc(C2CSCCN2C(=O)c2ccncc2)cc1` (stereo not given) the cytotoxicity at 70.5 h was 0.0663%.
Molecule `O=C(CN1CCCC(CO)C1)NCCOc1cccc(Cl)c1` (stereo not given) has a cytotoxicity at 70.5 h of 27.5%.
`Cc1ccc(N2CCCC(NCCS(C)(=O)=O)C2)nn1` (stereo not given) gave a cytotoxicity at 70.5 h of -1.77%.
With `Cn1cccc1-c1cc(C(=O)NCCCc2csc(N)n2)[nH]n1` the cytotoxicity at 70.5 h was 18.4%.
`Cc1cc(NCCn2cccn2)n2ncnc2n1` gave a cytotoxicity at 70.5 h of 0.75%.
With `O=C(O)C(c1ccc2c(c1)OCCO2)N1CCCC1` (stereo not given) the cytotoxicity at 70.5 h was -3.29%.
`O=C(Cc1ccccc1)N1CC[C@@H]2CNS(=O)(=O)[C@@H]2CC1` gave a cytotoxicity at 70.5 h of 2.48%.
Molecule `COc1c(CNCc2cccc(CN(C)C)c2)c(C)nn1C` has a cytotoxicity at 70.5 h of -12.7%.
For `O=C(c1cncc(N2CCC3(CCCNC3)C2)n1)N1CCCC1` (stereo not given), the cytotoxicity at 70.5 h was -5.37%.
In the case of `CCN(Cc1ccco1)C(=O)NCc1nnc2n1CCC2`, the cytotoxicity at 70.5 h is reported as -13.2%.
For `COc1ccc(C(=O)CN(C2=NCCCCC2)c2ccccc2)cc1`, the cytotoxicity at 70.5 h was -25.8%.
With `COc1cc(CNCC(C)O)cc(Cl)c1OCc1ccc(C)cc1` (stereo not given) the cytotoxicity at 70.5 h was 39%.
With `CCn1nc2c(cc1=O)CN(Cc1ccc(-n3cccn3)cc1)CC2` the cytotoxicity at 70.5 h was 2.14%.
In the case of `COc1ccc(CC2CCCN2CCCC#N)cc1` (stereo not given), the cytotoxicity at 70.5 h is reported as -4.33%.
With `CN(Cc1n[nH]c2c1CCC2)C(=O)c1cc(-c2cccn2C)n[nH]1` the cytotoxicity at 70.5 h was 25.6%.
Work on `O=C(c1cccc(S(=O)(=O)NCCc2nccs2)c1)N1CCOCC1` yielded a cytotoxicity at 70.5 h of -3.1%.
With `CC(=O)N1CCCC(c2ccnc(Nc3cnccn3)c2)C1` (stereo not given) the cytotoxicity at 70.5 h was -1.19%.
With `CC(=O)NCC(=O)N(CCc1ccccc1)C1CCOC1` (stereo not given) the cytotoxicity at 70.5 h was -9.4%.
Work on `Cc1nc(C2CCCN(C(=O)c3cc4c(s3)CCCC4)C2)no1` (stereo not given) yielded a cytotoxicity at 70.5 h of 5.35%.
With `Cc1cc(C(=O)N2CCc3ncc(CN4CCCC4)n3CC2)no1` the cytotoxicity at 70.5 h was -11%.
Work on `Cc1ccn(-c2ccc(C(=O)N3CCCC(n4ccnc4)C3)cc2)n1` (stereo not given) yielded a cytotoxicity at 70.5 h of -22.3%.
`CC(C)NC(=O)NCc1nnc2n1C(C(=O)N(C)C)CC2` (stereo not given) gave a cytotoxicity at 70.5 h of -3.97%.
Work on `CNCc1n[nH]c(=O)n1CC1CCCCC1` yielded a cytotoxicity at 70.5 h of -5.1%.
Molecule `CN(C)c1cc2c(nn1)CCN(C(=O)c1cc3c(s1)CCCC3)C2` has a cytotoxicity at 70.5 h of 13.1%.
In the case of `Cc1ccc2nc(C3CCCN(Cc4ccccc4)C3)nc(O)c2c1` (stereo not given), the cytotoxicity at 70.5 h is reported as 0.432%.
`CN(Cc1ccco1)[C@@H]1CN(Cc2nccn2C)[C@@H]2CCCO[C@H]12` showed a cytotoxicity at 70.5 h of -8.73%.
Molecule `Cc1nc2c(c(N3C[C@@H](C)[C@@](C)(O)C3)n1)CCC2` has a cytotoxicity at 70.5 h of 22.5%.
For `Cc1nc(N2CCCC2)nc2c1CCN(C(=O)N1CCCC1)CC2`, the cytotoxicity at 70.5 h was -8.89%.
For `COc1ccc(OCc2nc(C(=O)N3CC[C@H](O)[C@@H](O)C3)co2)cc1`, the cytotoxicity at 70.5 h was -8.88%.
For `Cc1ncc(CN(C)C(=O)Nc2cccc(CN3CCOC3=O)c2)s1`, the cytotoxicity at 70.5 h was -3.49%.
In the case of `CCc1ccc(NC(=O)N2Cc3c(CN(C)C)nn(C)c3C2)cc1`, the cytotoxicity at 70.5 h is reported as -2.56%.
Molecule `CCN1C(=O)CCC12CCCN(S(=O)(=O)c1cccc(C)c1)CC2` (stereo not given) has a cytotoxicity at 70.5 h of -2.78%.
For `N#CCCN(Cc1ccco1)C(=O)Cc1ccc(-n2cnnn2)cc1`, the cytotoxicity at 70.5 h was -6.73%.
Work on `COc1ccc(C(CNC(=O)Nc2cn[nH]c2)N2CCOCC2)cc1` (stereo not given) yielded a cytotoxicity at 70.5 h of -4.89%.
In the case of `COCCC(=O)N1CCC2(COCc3cnc(-c4cccnc4)nc32)C1` (stereo not given), the cytotoxicity at 70.5 h is reported as -6.92%.
For `CN(Cc1cc(C2CC2)on1)C(=O)CN1C(=O)OC(C)(C)C1=O`, the cytotoxicity at 70.5 h was 0.377%.
`COCCNC(=O)c1ccnn1-c1ccc2ccccn12` gave a cytotoxicity at 70.5 h of -4.72%.
Work on `COCCC(=O)N(CCC#N)c1ccc2c(c1)OCCO2` yielded a cytotoxicity at 70.5 h of -0.557%.
`CC(C)OCCCNC(=O)C1CCCN(c2ccc3nncn3n2)C1` (stereo not given) showed a cytotoxicity at 70.5 h of -9.82%.
`CC(C(=O)N1CCN(CCOc2ccccc2)CC1)n1cc(Cl)cn1` (stereo not given) gave a cytotoxicity at 70.5 h of -9.22%.
